Reference: patent publication US8933075B2, “Compounds useful as antiviral agents, compositions, and methods of use” (priority 2010, dated 2015)
pEC50: −log10 of the molar value.

Tested on: A/Udorn/72 (H3N2) virus
Test: Plaque assay in MDCK cells: EC50 by reduction of plaque number
Type: cell-based, influenza virus
Conditions: MDCK

Row | Structure (SMILES) | pEC50
1 | COc1cc(OC)cc(-c2cc(CCCn3cc(CO)nn3)c(/C=C3\SC(=S)N(C4C5CC6CC(C5)CC4C6)C3=O)o2)c1 (stereo not shown) [Compound 199, (Z)-3-(adamantan-2-yl)-5-((5-(3′,5′-dimethoxyphenyl)-3-(3-(4′-(hydroxymethyl)-1H-1′,2′,3′-triazol-1-yl)-propyl)furan-2-yl)methylene)-2-thioxothiazolidin-4-one] | > 7.00
2 | O=C1/C(=C/c2ccccc2)SC(=S)N1C1CC2CCC1C2 (stereo not shown) [Compound 207] | 6.00 to 6.60
3 | Cn1c(-c2ccc(Cl)cc2)cc(CCCCCO)c1/C=C1\SC(=S)N(C2CC3CCC2C3)C1=O (stereo not shown) [Compound 260] | > 7.00
4 | O=C1/C(=C/c2cc3ccccc3s2)SC(=S)N1C1CC2CCC1C2 (stereo not shown) [Compound 214, (Z)-5-(benzo[b]thiophen-2-ylmethylene)-3-(bicyclo[2.2.1]heptan-2-yl)-2-thioxothiazolidin-4-one] | > 7.00
5 | O=C1/C(=C/c2oc(-c3ccc(Cl)cc3)cc2CCCCO)SC(=S)N1C1C2CC3CC(C2)CC1C3 (stereo not shown) [Compound 335] | > 7.00
6 | COc1ccc(-c2ccc(/C=C3\SC(=S)N(C4CC5CCC4C5)C3=O)o2)cc1C(=O)N[C@@H](Cc1ccccc1)C(=O)O (stereo partly shown) [Compound 85] | > 7.00
7 | COc1cc(OC)cc(-c2cc(CCCC(C(=O)O)C(=O)O)c(/C=C3\SC(=S)N(C4C5CC6CC(C5)CC4C6)C3=O)o2)c1 (stereo not shown) [Compound 135] | 6.60 to 7.00
8 | CC(C)(C)OC(=O)N[C@@H](CC(N)=O)C(=O)OCCCCCc1cc(-c2ccc(Cl)cc2)[nH]c1/C=C1\SC(=S)N(C2C3CC4CC(C3)CC2C4)C1=O (stereo partly shown) [Compound 254] | > 7.00
9 | COc1ccc(-c2ccc(/C=C3\SC(=S)N(C4CC5CCC4C5)C3=O)o2)cc1C(=O)N1CCC[C@H]1C(=O)O (stereo partly shown) [Compound 89] | > 7.00
10 | COC(=O)/C=C/c1ccc(/C=C2\SC(=S)N(C3C4CC5CC(C4)CC3C5)C2=O)o1 (stereo not shown) [Compound 224] | > 7.00
11 | O=C1/C(=C/c2[nH]c(-c3ccc(Cl)cc3)cc2CCCCCO)SC(=S)N1C1C2CC3CC(C2)CC1C3 (stereo not shown) [Compound 236] | > 7.00
12 | CCOC(=O)/C=C/c1ccc(/C=C2\SC(=S)N(C3C4CC5CC(C4)CC3C5)C2=O)o1 (stereo not shown) [Compound 223, (E)-Ethyl 3-(5-((Z)-(3-(adamantan-2-yl)-4-oxo-2-thioxothiazolidin-5-ylidene)methyl)furan-2-yl)acrylate] | > 7.00
13 | CC(C)(C)OC(=O)N[C@@H](CC(N)=O)C(=O)OCCCc1cc(-c2ccc(F)cc2)oc1/C=C1\SC(=S)N(C2CC3CCC2C3)C1=O (stereo partly shown) [Compound 147] | > 7.00
14 | COc1ccc(-c2ccc(/C=C3\SC(=S)N(C4CC5CCC4C5)C3=O)o2)cc1OCC(=O)N[C@@H](CCC(=O)OCc1ccccc1)C(=O)O (stereo partly shown) [Compound 81] | > 7.00
15 | O=C1/C(=C/c2oc(-c3ccc(Cl)cc3)cc2CCCCCO)SC(=S)N1C1C2CC3CC(C2)CC1C3 (stereo not shown) [Compound 334] | > 7.00
16 | COC(=O)c1cc(-c2ccc(/C=C3\SC(=S)N(C4CC5CCC4C5)C3=O)o2)ccc1OC (stereo not shown) [Compound 14] | > 7.00
17 | O=C1/C(=C/c2sc(-c3ccc(Cl)cc3)cc2CCCCCO)SC(=S)N1C1CC2CCC1C2 (stereo not shown) [Compound 278] | > 7.00
18 | COc1cc(OC)cc(-c2cc(CCCNC(=O)[C@H](CC(C)C)NC(=O)OCC3c4ccccc4-c4ccccc43)c(/C=C3\SC(=S)N(C4CC5CCC4C5)C3=O)o2)c1 (stereo partly shown) [Compound 159] | > 7.00
19 | COc1cc(OC)cc(-c2cc(CCCCCOC(=O)[C@]3(O)C[C@@H](O)[C@@H](O)[C@H](O)C3)c(/C=C3\SC(=S)N(C4CC5CCC4C5)C3=O)o2)c1 (stereo partly shown) [Compound 356] | > 7.00
20 | O=C1/C(=C/c2oc(-c3ccc(Cl)cc3)cc2CCCN2CCNCC2)SC(=S)N1C1C2CC3CC(C2)CC1C3 (stereo not shown) [Compound 191] | > 7.00
21 | O=C1/C(=C/c2oc(-c3ccc(C(F)(F)F)cc3)cc2CCCCCO)SC(=S)N1C1C2CC3CC(C2)CC1C3 (stereo not shown) [Compound 338] | > 7.00

Row | Structure (SMILES) | pEC50
22 | O=C1/C(=C/c2oc(-c3ccc(F)cc3)cc2CCCCCO)SC(=S)N1C1CC2CCC1C2 (stereo not shown) [Compound 105] | > 7.00
23 | COCOc1cc(=O)oc2ccc(-c3ccc(/C=C4\SC(=S)N(C5CC6CCC5C6)C4=O)o3)cc12 (stereo not shown) [Compound 76] | 6.00 to 6.60
24 | COc1ccc(-c2ccc(/C=C3\SC(=S)N(C4CC5CCC4C5)C3=O)o2)cc1OCC(=O)N1CCC[C@H]1C(=O)O (stereo partly shown) [Compound 80] | > 7.00
25 | COc1cc(-c2ccc(/C=C3\SC(=S)N(C4CC5CCC4C5)C3=O)o2)ccc1O (stereo not shown) [Compound 24] | > 7.00
26 | COc1cccc(-c2cc(CCCO)c(/C=C3\SC(=S)N(C4CC5CCC4C5)C3=O)[nH]2)c1 (stereo not shown) [Compound 232] | > 7.00
27 | COc1cc(OC)cc(-c2cc(CCCCCO)c(/C=C3\SC(=S)N(C4C5CC6CC(C5)CC4C6)C3=O)o2)c1 (stereo not shown) [Compound 110] | > 7.00
28 | COc1ccc(-c2ccc(/C=C3\SC(=S)N(C4CC5CCC4C5)C3=O)o2)cc1 (stereo not shown) [Compound 8] | > 7.00
29 | O=C1/C(=C/c2ccc(-c3c(O)c4cc(Cl)ccc4oc3=O)o2)SC(=S)N1C1CC2CCC1C2 (stereo not shown) [Compound 322] | > 7.00
30 | O=C1/C(=C/c2oc(-c3ccc(F)cc3)cc2CCCCCCO)SC(=S)N1C1C2CC3CC(C2)CC1C3 (stereo not shown) [Compound 108] | > 7.00
31 | O=C1/C(=C/c2csc3ccccc23)SC(=S)N1C1C2CC3CC(C2)CC1C3 (stereo not shown) [Compound 211, 3-adamantan-2-yl-5-benzo[b]thiophen-3-ylmethylene-2-thioxo-thiazolidin-4-one] | > 7.00
32 | COc1cccc(-c2cc(CCCO)c(/C=C3\SC(=S)N(C4C5CC6CC(C5)CC4C6)C3=O)o2)c1 (stereo not shown) [Compound 352] | > 7.00
33 | COc1ccc(-c2cc(CCCCCO)c(/C=C3\SC(=S)N(C4CC5CCC4C5)C3=O)o2)cc1 (stereo not shown) [Compound 341] | > 7.00
34 | O=C1/C(=C/c2sc(-c3ccc(Cl)cc3)cc2CCCCCO)SC(=S)N1C1C2CC3CC(C2)CC1C3 (stereo not shown) [Compound 281] | > 7.00
35 | O=C1/C(=C/c2ccc(-c3ccc(-c4ccccc4)cc3)o2)SC(=S)N1C1CC2CCC1C2 (stereo not shown) [Compound 226] | > 7.00
36 | COC(=O)C[C@H](NC(=O)c1cc(-c2ccc(/C=C3\SC(=S)N(C4CC5CCC4C5)C3=O)o2)ccc1OC)C(=O)O (stereo partly shown) [Compound 90] | 6.60 to 7.00
37 | COc1ccc(-c2ccc(/C=C3\SC(=S)N(C4CC5CCC4C5)C3=O)o2)cc1C(=O)N[C@@H](Cc1cnc[nH]1)C(=O)O (stereo partly shown) [Compound 88] | > 7.00
38 | COc1cc(OC)cc(-c2cc(CCCOC(=O)[C@H](Cc3ccccc3)NC(=O)OC(C)(C)C)c(/C=C3\SC(=S)N(C4CC5CCC4C5)C3=O)o2)c1 (stereo partly shown) [Compound 142] | > 7.00
39 | COc1cccc(-c2cc(CCCCCO)c(/C=C3\SC(=S)N(C4C5CC6CC(C5)CC4C6)C3=O)s2)c1 (stereo not shown) [Compound 279] | > 7.00
40 | Nc1ccc(-c2ccc(/C=C3\SC(=S)N(C4CC5CCC4C5)C3=O)o2)cc1 (stereo not shown) [Compound 11] | > 7.00
41 | O=C1/C(=C/c2oc(-c3cccc(Cl)c3)cc2CCCCCO)SC(=S)N1C1C2CC3CC(C2)CC1C3 (stereo not shown) [Compound 346] | > 7.00
42 | COc1ccc2oc(=O)c(-c3ccc(/C=C4\SC(=S)N(C5CC6CCC5C6)C4=O)o3)c(O)c2c1 (stereo not shown) [Compound 69] | 6.60 to 7.00

Row | Structure (SMILES) | pEC50
43 | O=C1/C(=C/c2ccc(-c3c(O)c4ccc(O)cc4oc3=O)o2)SC(=S)N1C1CC2CCC1C2 (stereo not shown) [Compound 324] | > 7.00
44 | COc1cc(OC)cc(-c2cc(CCCNC(=O)[C@H](Cc3ccc(OC(C)(C)C)cc3)NC(=O)OC(C)(C)C)c(/C=C3\SC(=S)N(C4CC5CCC4C5)C3=O)o2)c1 (stereo partly shown) [Compound 160] | > 7.00
45 | COc1cc(OC)cc(-c2cc(CCCNC(=O)[C@@H](NC(=O)OC(C)(C)C)c3ccccc3)c(/C=C3\SC(=S)N(C4CC5CCC4C5)C3=O)o2)c1 (stereo partly shown) [Compound 162] | > 7.00
46 | O=C1/C(=C/c2[nH]c(-c3ccc(Cl)cc3)cc2CCCO)SC(=S)N1C1CC2CCC1C2 (stereo not shown) [Compound 229] | > 7.00
47 | COc1cc(-c2ccc(/C=C3\SC(=S)N(C4C5CC6CC(C5)CC4C6)C3=O)o2)cc(OC)c1O (stereo not shown) [Compound 7] | > 7.00
48 | CCOC(=O)[C@@H]1CCCCN1C(=O)c1cc(-c2ccc(/C=C3\SC(=S)N(C4CC5CCC4C5)C3=O)o2)ccc1OC (stereo partly shown) [Compound 91] | > 7.00
49 | COc1cccc(-c2cc(CCCCCOC(=O)[C@H](CC(N)=O)NC(=O)OC(C)(C)C)c(/C=C3\SC(=S)N(C4C5CC6CC(C5)CC4C6)C3=O)s2)c1 (stereo partly shown) [Compound 310] | > 7.00
50 | COc1cc(OC)cc(-c2cc(CCCO)c(/C=C3\SC(=S)N(C4CC5CCC4C5)C3=O)o2)c1 (stereo not shown) [Compound 96] | > 7.00
51 | O=C1/C(=C/c2cc(CCCO)c(-c3ccc(Cl)cc3)n2Cc2ccccc2)SC(=S)N1C1C2CC3CC(C2)CC1C3 (stereo not shown) [Compound 257] | > 7.00
52 | COc1ccc2c(O)c(-c3ccc(-c4ccc(/C=C5\SC(=S)N(C6CC7CCC6C7)C5=O)o4)cc3)c(=O)oc2c1 (stereo not shown) [Compound 227] | > 7.00
53 | COc1cc(C)c(-c2ccc(/C=C3\SC(=S)N(C4CCCC4)C3=O)o2)cc1C [Compound 51] | > 7.00
54 | COc1ccc(-c2ccc(/C=C3\SC(=S)N(C4C5CC6CC(C5)CC4C6)C3=O)o2)cc1 (stereo not shown) [Compound 9] | > 7.00
55 | COc1ccc(-c2ccc(/C=C3\SC(=S)N(C4CC5CCC4C5)C3=O)o2)cc1OCC(=O)N[C@@H](Cc1ccccc1)C(=O)O (stereo partly shown) [Compound 79] | > 7.00
56 | O=C1/C(=C/c2oc(-c3ccc(OC(F)(F)F)cc3)cc2CCCCCO)SC(=S)N1C1CC2CCC1C2 (stereo not shown) [Compound 340] | > 7.00
57 | CC(C)(C)N1C(=O)C[C@@H](C(=O)OCCCc2cc(-c3ccc(Cl)cc3)[nH]c2/C=C2\SC(=S)N(C3C4CC5CC(C4)CC3C5)C2=O)NC1=O (stereo partly shown) [Compound 252] | > 7.00
58 | COc1ccc2c(O)c(-c3ccc(/C=C4\SC(=S)N(C5CC6CCC5C6)C4=O)o3)c(=O)oc2c1OC (stereo not shown) [Compound 71] | 6.60 to 7.00
59 | O=C1/C(=C/c2[nH]c(-c3ccc(Cl)cc3)cc2CCCCCO)SC(=S)N1C1CC2CCC1C2 (stereo not shown) [Compound 230] | > 7.00
60 | COc1ccc2oc(=O)c(-c3ccc(/C=C4\SC(=S)N(C5C6CC7CC(C6)CC5C7)C4=O)o3)c(O)c2c1 (stereo not shown) [Compound 70] | 6.60 to 7.00
61 | COc1cc(OC)cc(-c2cc(CCCN3CCNCC3)c(/C=C3\SC(=S)N(C4C5CC6CC(C5)CC4C6)C3=O)o2)c1 (stereo not shown) [Compound 190] | > 7.00
